Here are results for 13 compounds from publication PMC8399014, “Design of Multifaceted Antioxidants: Shifting towards Anti-Inflammatory and Antihyperlipidemic Activity” (Molecules, 2021).

In data set [1] the test system is rat/mouse microsomal lipid peroxidation. Kind of data set: Inhibition of microsomal lipid peroxidation. The following applies: after 45 min of incubation; read-out: IC50 against microsomal lipid peroxidation. It counts as biochemical, C57BL/6 mice. How it is done:
The antioxidant effect of the new compounds, as well as their parent compounds was also evaluated by the protection offered against rat/mouse microsomal lipid peroxidation.
The incubation mixture contained heat-inactivated (90 °C for 90 s) liver microsomal fraction from untreated C57BL/6 mice (corresponding to 2.5 mg of hepatic protein per milliliter or 4 mM fatty acid residues), ascorbic acid (0.2 mM) in Tris–HCl/KCl buffer (50 mM/ 150 mM, pH 7.4), and the studied compounds dissolved in dimethyl sulfoxide (in different concentrations). The reaction was initiated by the addition of a freshly prepared FeSO4 solution (10 μM), and the mixture was incubated at 37 °C for 45 min. Aliquots were taken at various time intervals and lipid peroxidation was assessed by the spectrophotometric (535 against 600 nm) determination of the produced 2-thiobarbituric acid reactive material.

In data set [2] the target is T1, soybean lipoxygenase (LOX-3) (Glycine max, UniProt P09186).
T1 sequence (P09186 1-857): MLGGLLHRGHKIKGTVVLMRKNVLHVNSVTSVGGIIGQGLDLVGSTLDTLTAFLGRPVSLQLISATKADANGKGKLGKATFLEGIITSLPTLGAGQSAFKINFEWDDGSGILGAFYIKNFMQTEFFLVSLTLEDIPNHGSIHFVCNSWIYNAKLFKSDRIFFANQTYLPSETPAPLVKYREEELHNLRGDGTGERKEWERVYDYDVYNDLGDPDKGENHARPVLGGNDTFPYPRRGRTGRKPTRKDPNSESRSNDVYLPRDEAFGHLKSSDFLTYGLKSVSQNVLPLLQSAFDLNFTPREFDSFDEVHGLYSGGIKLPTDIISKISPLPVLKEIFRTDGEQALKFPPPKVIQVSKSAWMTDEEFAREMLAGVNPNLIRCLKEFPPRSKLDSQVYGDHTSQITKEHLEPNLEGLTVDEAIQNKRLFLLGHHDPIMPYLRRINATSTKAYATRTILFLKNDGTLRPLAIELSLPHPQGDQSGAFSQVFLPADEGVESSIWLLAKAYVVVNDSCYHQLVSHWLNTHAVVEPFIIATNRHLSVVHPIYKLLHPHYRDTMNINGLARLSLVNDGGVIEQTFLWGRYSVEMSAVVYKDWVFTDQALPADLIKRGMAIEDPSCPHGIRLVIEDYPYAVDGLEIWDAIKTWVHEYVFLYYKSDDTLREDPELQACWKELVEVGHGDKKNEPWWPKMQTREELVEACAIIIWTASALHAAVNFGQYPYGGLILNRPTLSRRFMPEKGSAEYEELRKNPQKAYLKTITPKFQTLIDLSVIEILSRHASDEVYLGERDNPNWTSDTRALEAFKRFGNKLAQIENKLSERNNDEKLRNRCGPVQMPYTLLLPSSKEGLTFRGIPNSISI
Kind of data set: Soybean lipoxygenase (LOX-3) inhibition. The following applies: for LOX-3 inhibitory activity (in words): parent antioxidants. It counts as biochemical.
Method: The anti-inflammatory effect of the synthesized compounds was initially evaluated in vitro, via their ability to inhibit soybean lipoxygenase (LOX-3).
Lipoxygenase activity was determined using soybean lipoxygenase (250 U/mL) and sodium linoleate (100 μM) as substrate, in Tris–HCl buffer pH 9.0. The test compounds dissolved in methanol were added and the reaction was monitored for 5 min at 28 °C, recording absorbance at 234 nm.

Data set [3] concerns carrageenan-induced mouse paw edema. Briefly: Carrageenan-induced mouse paw edema. Type of data set: in vivo. The following applies: for inhibition in vivo at 300 µmol/kg: Mus musculus, ip, 0.30 mmol/kg i.p., 3.5 h after carrageenan, mean of 6 animals, read-out: % Edema Reduction. How it is done:
In vivo anti-inflammatory activity of the synthesized compounds was evaluated as mouse paw edema reduction. Paw edema was induced by subcutaneous injection of a 2% carrageenan suspension in the right paw of mice, the left serving as the control. The activity of the tested compounds (at 0.30 mmol/kg of body weight, i.p.), expressed as % reduction in paw edema 3.5 h after carrageenan injection, is shown in Table 2. […] Moreover, compounds 9 and 10 (antioxidant derivatives of mefenamic acid) caused a 1.5–2-fold improvement in edema reduction compared to that of the parent mefenamic acid (i).
For the in vivo anti-inflammatory activity, Wistar male rats or C57BL/6 mice were injected with 0.025 mL carrageenan (2% w/v solution in saline) i.d. into the right hind paw, with the left paw serving as the control. The test compounds (300 μmol/kg) were given, i.p., after the carrageenan injection, and 3.5 h later, the produced edema was estimated as the paw weight increase. Results are expressed as percentage of the reduction in paw edema and are the means for six animals (per compound).
(The carrageenan paw model is a standard test of acute inflammation.)

The nature of data set [4]: Radical scavenging of DPPH. The following applies: DPPH 200 μM, after incubation for 30 min. How it is done: The antioxidant activity of compounds 1–17 was evaluated via their ability to scavenge the free radical DPPH.
Compounds dissolved in absolute methanol at concentrations of 25–400 μM were added to an equal volume of a methanolic solution of DPPH (final concentration 200 μM) at room temperature (22 ± 2 °C). Absorbance (517 nm) was recorded at different time intervals for 1 h and results were expressed as IC50 (μM) for DPPH after incubation for 30 min [3].
A general note: Loss of DPPH colour is used to gauge radical scavenging.

Data set [5] relates to carrageenan-induced mouse paw edema. The following applies: cited from earlier work.
For data set [6], the system named is experimentally induced hyperlipidemic mouse model. Briefly: Tyloxapol (Triton WR 1339)-induced hyperlipidemia. Type of data set: in vivo, mice. The following applies: 84 μmol/kg i.p.; 24 h after tyloxapol. How it is done:
Acute hyperlipidemia was achieved, i.p., by the administration of tyloxapol (Triton WR 1339). The antihyperlipidemic effect of the tested compounds was evaluated as the decrease in total cholesterol (TC) and triglyceride (TG) levels in plasma 24 h after tyloxapol administration. The results are shown in Figure 4A,B. Compounds 9 and 10 reduced TC levels in plasma by 73% and 50%, respectively, and TG levels by 76% and 41%, respectively.
An aqueous solution of Triton WR 1339 was given, i.p., to mice (400 mg/kg of body weight) and one hour later the test compounds (84 μmol/kg of body weight), dissolved in saline or saline only were administered, i.p. After 24 h, blood was taken from the aorta/heart and used for the determination of plasma total cholesterol (TC) and triglyceride (TG) levels, using commercially available kits. Levels of plasma lipids were determined in duplicate while the values presented were the mean from eight animals (per compound).

The subject of data set [7] is rat/mouse microsomal lipid peroxidation. On the set-up: method as in doi:10.1002/(SICI)1098-2299(199905)47:1<9::AID-DDR2>3.0.CO. The following applies: after 45 min of incubation; read-out: IC50 against microsomal lipid peroxidation; cited from earlier work.
The mark [8] stands for this setting: after 5 min of incubation, sodium linoleate 100 μM, pH 9.0, read-out: IC50 Value on LOX-3.

Where two headings read alike, the source gives them in different places. Marks after values point to notes of the source that are not given here.

Consider `CC(C)(C)c1cc(C(=O)O)cc(C(C)(C)C)c1O` [BHB, 3,5-di-tert-butyl-4-hydroxybenzoic acid, reference compound], for which the IC50 (in general, the concentration needed to halve the response being measured) in data set [1] stood at 257 µM; in data set [4], 31 µM. In addition, in data set [2], the “LOX-3 inhibitory activity (in words)” value is on record as “little or no inhibitory activity”. In addition, in data set [3], the inhibition in vivo at 300 µmol/kg was 53%.
On the same counts, the results for `CC(C)(C)c1cc(CO)cc(C(C)(C)C)c1O` [BHBA, 3,5-di-tert-butyl-4-hydroxybenzyl alcohol, reference compound] are 10 µM, 160 µM, “little or no inhibitory activity” and 71%.
For `COc1ccc2cc(C(C)C(=O)OCc3cc(C(C)(C)C)c(O)c(C(C)(C)C)c3)ccc2c1` (stereo not shown) [Compound 3, 3,5-di-tert-butyl-4-hydroxybenzyl 2-(6-methoxynaphthalen-2-yl)propanoate], the melting point (commonly the temperature of the solid-liquid transition) is 85 to 86 °C. The IC50 in data set [2] (setting [8]) is 41 µM. Moreover, in data set [5] (0.15 mmol/kg i.p.), the “% Edema Reduction” value is 78**^a [11] %.
In the case of `Cc1cccc(Nc2ccccc2C(=O)OCc2cc(C(C)(C)C)c(O)c(C(C)(C)C)c2)c1C` [Compound 9, 3,5-di-tert-butyl-4-hydroxybenzyl 2-((2,3-dimethylphenyl)amino)benzoate], in data set [1], the IC50 is 5 µM. In addition, the IC50 in data set [2] (setting [8]) worked out at 108 µM. The inhibition in vivo at 300 µmol/kg in data set [3] was 63%. Further, in data set [3] (compared to parent mefenamic acid (i)), the “improvement in edema reduction” value was 1.5–2 fold. For the same compound, in data set [6], the “reduction of total cholesterol (TC) levels in plasma” value turned out to be 73% and the “reduction of triglyceride (TG) levels in plasma” value turned out to be 76%.
Compound `Cc1c(Cl)cccc1Nc1ccccc1COC(=O)C1(C)CCc2c(C)c(O)c(C)c(C)c2O1` (stereo not shown) [Compound 16, 2-((3-chloro-2-methylphenyl)amino)benzyl 6-hydroxy-2,5,7,8-tetramethylchromane-2-carboxylate] had a melting point of 150.4 to 151.3 °C. In addition, in data set [2] (setting [8]), the IC50 is 54 µM. The inhibition in vivo at 300 µmol/kg in data set [3] is 54%. The same compound showed an IC50 in data set [4] of 47 µM. In data set [6], the “reduction of total cholesterol (TC) levels in plasma” value amounted to 55% and the “reduction of triglyceride (TG) levels in plasma” value came out at 78%.
Regarding `Cc1c(C)c2c(c(C)c1O)CCC(C)(C(=O)O)O2` (stereo not shown) [Trolox, 6-hydroxy-2,5,7,8-tetramethylchromane-2-carboxylic acid, reference compound], the IC50 in data set [1] was found to be 25 µM; in data set [4], 33 µM. Moreover, the “LOX-3 inhibitory activity (in words)” value in data set [2] is “little or no inhibitory activity”. In data set [3], the inhibition in vivo at 300 µmol/kg was 46%.
In the case of `CC(C)Cc1ccc(C(C)C(=O)O)cc1` (stereo not shown) [a, Ibuprofen], the “% Edema Reduction” value in data set [5] (0.30 mmol/kg i.p.) was 57*** [5] %.
As for `COc1ccc2cc([C@H](C)C(=O)O)ccc2c1` [c, Naproxen, reference compound], the IC50 in data set [2] is 25 µM. The “% Edema Reduction” value in data set [5] (0.30 mmol/kg i.p.) was 51** [11] %.
As for `Cc1c(Cl)cccc1Nc1ccccc1C(=O)O` [e, Tolfenamic acid], in data set [5] (0.30 mmol/kg i.p.), the “% Edema Reduction” value was 60*** [5] %. Further, the half-inhibitory concentration (IC50) in data set [7] is 250 µM.
For `O=C(O)c1ccccc1Nc1cccc(C(F)(F)F)c1` [g, Flufenamic acid], the “% Edema Reduction” value in data set [5] (0.15 mmol/kg i.p.) is 19**^a [17] %.
Regarding `Cc1cccc(Nc2ccccc2C(=O)O)c1C` [i, Mefenamic acid, reference compound], in data set [3], the inhibition in vivo at 300 µmol/kg was determined as 35%. In data set [7], the IC50 was 130 µM.
Regarding `O=C(O)Cc1ccccc1Nc1c(Cl)cccc1Cl` [k, Diclofenac], in data set [5] (0.30 mmol/kg i.p.), the “% Edema Reduction” value was 61*** [5] %.
For the compound `COc1ccc2c(c1)c(CC(=O)O)c(C)n2C(=O)c1ccc(Cl)cc1` [m, Indomethacin], in data set [5] (0.30 mmol/kg i.p.), the “% Edema Reduction” value is 55*** [5] %.
